# Reference: patent US20130115256A1, “METHODS FOR TREATING OR PREVENTING VASCULAR GRAFT FAILURE” (priority 2010, published 2013)
# Columns and labels:
# [1] = system: immortalized human pleural mesothelial cells (ATCC CRL-9444); test: TNF-α-induced IL-6 expression in mesothelial cells (ELISA); type: cell-based
# Excerpt: In order to examine the efficacy of MMI-0100 ([…]; SEQ ID NO: 1) in inhibiting the production of inflammatory cytokines, an inflammatory response was triggered in vitro by applying TNF-α to immortalized human pleural mesothelial cells (ATCC CRL-9444). A mesothelial cell is a cell type that forms a monolayer of specialized pavement-like cells (mesothelium) that lines the body's abdominal cavities and internal organs. The primary function of this layer, the mesothelium, is to provide a slippery, non-adhesive, and protective surface. Mesothelial cells also are involved in transport of fluid and cells across the peritoneal (abdominal) cavities, antigen presentation, inflammation, tissue repair, coagulation, and tumor cell adhesion. It is well known that mesothelial cells play important role in the peritoneal inflammatory response. In response to bacterial products and macrophage-derived inflammatory cytokines (e.g., TNF-α), mesothelial cells produce Interleukin-1 (IL-1), Interleukin-6 (IL-6), and Interleukin-8 (IL-8), thus amplifying the inflammatory signals and recruiting leukocytes into the infected abdominal cavity.
# Expression of inflammatory cytokines was induced by applying 1 or 10 ng/ml of TNF-α to cultured mesothelial cells. Briefly, immortalized human pleural mesothelial cells (ATCC CRL-9444) were grown in Medium199 with Earle's BSS, 0.75 mM L-glutamine (Mediatech Inc., Manassas, Va.), 1.25 g/l sodium bicarbonate (Sigma), 3.3 nM epidermal growth factor (EGF) (MBL International, Woburn, Mass.), 40 nM hydrocortisone (Sigma), 870 nM insulin (MBL International), 20 mM HEPES (Sigma), trace elements mixture B (Mediatech Inc., Waltham, Mass.), 10% fetal bovine serum (FBS) (Hyclone), and 1% penicillin/streptomycin (Mediatech Inc., Waltham, Mass.). […] Human mesothelial cells were treated with two different concentrations (1 and 10 ng/mL) of TNF-α for 2, 6, 12, and 24 hours (data not shown). […] Without TNF-α stimulation, mesothelial cells made negligible amounts of IL-6. […] In subsequent experiments designed to determine whether the MMI-0100 peptide ([…]; SEQ ID NO: 1) could reduce TNF-α induced IL-6 expression, both 1 and 10 ng/mL of TNF-α were selected as stimuli. 10 ng/mL of TNF-α is regarded as more physiologically relevant for mesothelial cells.
# Prior to cytokine and/or inhibitor treatment, cells were allowed to acclimate in serum-free media consisting of only Medium 199 with Earle's BSS, 0.75 mM L-glutamine, 1.25 g/l sodium bicarbonate, 20 mM HEPES, trace elements mixture B (Mediatech Inc., Waltham, Mass.), and 1% penicillin/streptomycin (Mediatech Inc., Waltham, Mass.) for 24 hours. After the adapting period, cytokines (TNF-α and IL-1β) with or without MMI-0100 peptide or Rottlerin (Tocris Bioscience, Ellisville, Mo.; IC50=5 μM) were added to the media in order to compare the efficacy of MMI-0100 ([…]; SEQ ID NO: 1) with that of Rottlerin. Specifically, serum-starved mesothelial cells were treated with two different concentrations (1000 μM or 3000 μM) of MMI-0100 ([…] (SEQ ID NO: 1)) at three different time points (6 hours, 12 hours, and 24 hours) using two different concentrations of TNF-α (1 ng/ml or 10 ng/ml) or using 1 ng/ml of IL-1β. Average concentration of IL-6 (pg/ml per 10^5 cells) at each time was determined by cytokine-specific ELISA.
# [2] = system: human saphenous vein (HSV); test: Sodium nitroprusside-induced relaxation of human saphenous vein in muscle bath; settings: control peptide 50 or 100 μM; data not shown
# Method: In preparation for testing vein segment functional viability, HSV rings were weighed and their lengths recorded. To focus on smooth muscle responses, the endothelium was mechanically denuded by rolling the luminal surface of each ring at the tip of a fine vascular forceps before suspension in a muscle bath containing a bicarbonate buffer (120 mM NaCl, 4.7 mM KCl, 1.0 mM MgSO4, 1.0 mM NaH2PO4, 10 mM glucose, 1.5 mM CaCl2, and 25 mM […], pH 7.4) equilibrated with 95% O2 and 5% CO2 at 37° C. The rings were stretched and the length progressively adjusted until maximal tension was obtained. Normalized reactivity was obtained by determining the passive length-tension relationship for each vessel segment. Rings were maintained at a resting tension of 1 g, which produces maximal responses to contractile agonists as previously determined, and equilibrated for 2 hours in buffer. Force measurements were obtained using a Radnoti Glass Technology (Monrovia, Calif.) force transducer (159901A) interfaced with a Powerlab data acquisition system and Chart software (AD Instruments, Colorado Springs, Colo.).
# HSV rings were first contracted with 110 mM KCl (with equimolar replacement of NaCl in bicarbonate buffer) and the generated force was measured. 110 mM KCl causes membrane depolarization, leading to contraction of vessels containing functionally viable smooth muscle. After multiple KCl challenges, rings were washed and allowed to equilibrate in bicarbonate solution for 30 min, and then contracted with phenylephrine (PE, 10^−7-10^−6 M). Rings were relaxed with a cumulative log dose of sodium nitroprusside (SNP), a nitric oxide donor, and the force generated was recorded. All rings were again washed and equilibrated in buffer for 15 minutes. Rings were then incubated with either buffer alone or buffer plus 100 μM of MMI-0100 ([…] (SEQ ID NO: 1)) for 2 hours, followed by treatment with the same doses of PE and SNP, and the forces generated again recorded. Measured force was normalized for ring weight and length and percent relaxation was calculated; force generated with 10^−6M of PE was set as 0% relaxation.
# The enhancing effect of MMI-0100 ([…]; SEQ ID NO: 1) on smooth muscle relaxation was examined by pre-treating harvested human saphenous vein (HSV) with MMI-0100 ([…]; SEQ ID NO: 1) before SNP treatment. Segments of human saphenous vein (HSV) were equilibrated in a muscle bath and pretreated with a control solution (0.01M phosphate-buffered solution, PBS) or MMI-0100 ([…] (SEQ ID NO: 1); 30 μM, 2 hrs), contracted with norepinephrine. and relaxed with increasing doses of sodium nitroprusside (SNP, 0-1 μM). Percentage of relaxation at 0, 0.01, 0.1, and 1.0 μM of SNP was measured. […]
Compound,"IL-6 expression compared with TNF-α alone ([1]; 1 ng/mL TNF-α, 6 hrs, Rottlerin)","IL-6 expression ([1]; 1 ng/mL TNF-α, Rottlerin)","IL-6 expression ([1]; 10 ng/mL TNF-α, Rottlerin 1 μM, twenty-four hours)",relaxation response compared to untreated control [2]
"CC(=O)c1c(O)c(C)c(O)c(Cc2c(O)c3c(c(C(=O)/C=C/c4ccccc4)c2O)OC(C)(C)C=C3)c1O [Rottlerin, reference compound]",significantly increased,ineffective,reduced IL-6 expression,–
"YARAAARQARA (mammal) [PTD peptide, control peptide (transduction domain, PTD peptide), reference compound]",–,–,–,no significant difference
